Results published in paper PMC10175918 (Communications Biology, 2023).
Read-outs that look alike come from different tables or passages of the source.

Assays:
Assay in all cases: TGFα-shedding assay-based GPCR screening with chimeric Gα subunit proteins
Type in all cases: cell-based
Settings in all cases: 10µM, Favipiravir 100μM
348 GPCRs [1] = target: T1, 348 GPCRs (Homo sapiens, UniProt P48146)
T1 construct: expressed in transfected cells; host or cells: HEK293A

348 GPCRs [2] = target: T2, 348 GPCRs (Homo sapiens, UniProt Q15761)
T2 construct: expressed in transfected cells; host or cells: HEK293A
T2 sequence (Q15761 1-445): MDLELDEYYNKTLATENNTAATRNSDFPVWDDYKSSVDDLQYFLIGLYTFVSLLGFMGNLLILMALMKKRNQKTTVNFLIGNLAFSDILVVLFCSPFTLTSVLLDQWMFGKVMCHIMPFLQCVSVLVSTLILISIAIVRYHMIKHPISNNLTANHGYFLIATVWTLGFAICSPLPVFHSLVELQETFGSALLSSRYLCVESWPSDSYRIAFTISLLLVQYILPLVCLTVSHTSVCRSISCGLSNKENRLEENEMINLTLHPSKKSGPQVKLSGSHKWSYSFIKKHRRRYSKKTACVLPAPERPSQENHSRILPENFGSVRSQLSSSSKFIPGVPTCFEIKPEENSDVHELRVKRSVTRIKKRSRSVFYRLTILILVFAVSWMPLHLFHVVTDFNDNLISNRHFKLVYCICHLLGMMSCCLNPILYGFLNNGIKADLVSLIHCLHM

348 GPCRs [3] = target: T3, 348 GPCRs (Homo sapiens, UniProt Q14416)
T3 construct: expressed in transfected cells; host or cells: HEK293A

348 GPCRs [4] = target: T4, 348 GPCRs (Homo sapiens, UniProt Q9NYW7)
T4 construct: expressed in transfected cells; host or cells: HEK293A
T4 sequence (Q9NYW7 1-299): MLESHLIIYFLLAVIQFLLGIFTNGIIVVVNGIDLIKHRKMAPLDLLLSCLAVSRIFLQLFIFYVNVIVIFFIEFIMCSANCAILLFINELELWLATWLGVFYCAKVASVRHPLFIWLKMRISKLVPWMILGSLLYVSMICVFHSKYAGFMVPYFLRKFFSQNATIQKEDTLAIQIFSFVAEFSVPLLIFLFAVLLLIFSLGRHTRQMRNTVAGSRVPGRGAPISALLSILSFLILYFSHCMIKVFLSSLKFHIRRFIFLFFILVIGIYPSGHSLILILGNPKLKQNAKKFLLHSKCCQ

348 GPCRs [5] = target: T5, 348 GPCRs (Homo sapiens, UniProt Q16570)
T5 construct: expressed in transfected cells; host or cells: HEK293A
T5 sequence (Q16570 1-336): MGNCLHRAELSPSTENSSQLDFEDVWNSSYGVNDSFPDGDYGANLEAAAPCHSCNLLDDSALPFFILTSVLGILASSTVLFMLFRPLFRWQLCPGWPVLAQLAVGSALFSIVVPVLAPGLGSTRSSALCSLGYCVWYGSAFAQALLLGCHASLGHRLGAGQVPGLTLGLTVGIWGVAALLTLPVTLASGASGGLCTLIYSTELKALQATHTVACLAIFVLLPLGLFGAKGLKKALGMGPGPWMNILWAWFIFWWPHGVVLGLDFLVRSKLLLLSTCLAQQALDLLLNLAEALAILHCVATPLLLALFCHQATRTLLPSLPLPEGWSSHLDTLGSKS

348 GPCRs [6] = target: T6, 348 GPCRs (Homo sapiens, UniProt Q96CH1)
T6 construct: expressed in transfected cells; host or cells: HEK293A

348 GPCRs [7] = target: T7, 348 GPCRs (Homo sapiens, UniProt O75388)
T7 construct: expressed in transfected cells; host or cells: HEK293A

348 GPCRs [8] = target: T8, 348 GPCRs (Homo sapiens, UniProt O75473)
T8 construct: expressed in transfected cells; host or cells: HEK293A
T8 sequence (O75473 22-907): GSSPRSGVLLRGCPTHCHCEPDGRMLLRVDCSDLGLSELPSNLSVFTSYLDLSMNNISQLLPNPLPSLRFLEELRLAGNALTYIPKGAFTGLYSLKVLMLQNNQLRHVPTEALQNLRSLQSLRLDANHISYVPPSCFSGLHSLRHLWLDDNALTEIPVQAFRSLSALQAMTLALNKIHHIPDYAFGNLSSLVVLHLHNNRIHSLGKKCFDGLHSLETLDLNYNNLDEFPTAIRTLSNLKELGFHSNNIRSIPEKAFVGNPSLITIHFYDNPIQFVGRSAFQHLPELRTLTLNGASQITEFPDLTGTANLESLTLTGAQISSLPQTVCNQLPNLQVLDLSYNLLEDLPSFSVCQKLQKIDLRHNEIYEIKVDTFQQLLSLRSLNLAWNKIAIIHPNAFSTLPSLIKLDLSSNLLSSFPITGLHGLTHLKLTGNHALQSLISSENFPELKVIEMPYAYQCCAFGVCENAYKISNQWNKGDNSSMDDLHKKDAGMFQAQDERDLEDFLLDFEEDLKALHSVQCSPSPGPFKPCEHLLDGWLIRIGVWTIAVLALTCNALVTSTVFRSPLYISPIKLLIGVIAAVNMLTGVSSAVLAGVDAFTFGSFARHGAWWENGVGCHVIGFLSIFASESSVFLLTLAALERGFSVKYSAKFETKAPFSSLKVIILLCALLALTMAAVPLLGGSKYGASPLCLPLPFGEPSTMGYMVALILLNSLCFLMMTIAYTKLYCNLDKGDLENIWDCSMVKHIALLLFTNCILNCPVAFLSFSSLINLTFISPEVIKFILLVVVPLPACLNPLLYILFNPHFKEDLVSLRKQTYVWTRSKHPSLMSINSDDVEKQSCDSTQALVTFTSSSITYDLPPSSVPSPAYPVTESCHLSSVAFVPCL

348 GPCRs [9] = target: 348 GPCRs (Homo sapiens, UniProt P51681)
[10] = read-out: % GPCR activation compared to TPA, NPBWR2 (neuropeptides B and W receptor 2)
[11] = read-out: % GPCR activation compared to TPA, NPY5R (neuropeptide Y Receptor Y5)
[12] = read-out: % GPCR activation compared to TPA, GRM2 (glutamate metabotropic receptor 2)
[13] = read-out: % GPCR activation compared to TPA, TAS2R1 (taste receptor, type 2, member 1)
[14] = read-out: % GPCR activation compared to TPA, DARC (Duffy blood group, chemokine receptor)
[15] = read-out: % GPCR activation compared to TPA, GPR146 (G protein-coupled receptor 146)
[16] = read-out: % GPCR activation compared to TPA, GPR32 (G protein-coupled receptor 32)
[17] = read-out: % GPCR activation compared to TPA, LGR5 (leucine-rich repeat containing G protein-coupled receptor 5)
[18] = CCR5, read-out: % GPCR activation compared to TPA, CCR5 (C-C motif chemokine receptor 5)
[19] = NPBWR2 (neuropeptides B and W receptor 2), read-out: % GPCR activation compared to TPA
[20] = NPY5R (neuropeptide Y Receptor Y5), read-out: % GPCR activation compared to TPA
[21] = GRM2 (glutamate metabotropic receptor 2), read-out: % GPCR activation compared to TPA
[22] = TAS2R1 (taste receptor, type 2, member 1), read-out: % GPCR activation compared to TPA
[23] = DARC (Duffy blood group, chemokine receptor), read-out: % GPCR activation compared to TPA
[24] = GPR146 (G protein-coupled receptor 146), read-out: % GPCR activation compared to TPA
[25] = GPR32 (G protein-coupled receptor 32), read-out: % GPCR activation compared to TPA
[26] = LGR5 (leucine-rich repeat containing G protein-coupled receptor 5), read-out: % GPCR activation compared to TPA
[27] = CCR5, CCR5 (C-C motif chemokine receptor 5), read-out: % GPCR activation compared to TPA

T1 sequence (P48146 whole entry): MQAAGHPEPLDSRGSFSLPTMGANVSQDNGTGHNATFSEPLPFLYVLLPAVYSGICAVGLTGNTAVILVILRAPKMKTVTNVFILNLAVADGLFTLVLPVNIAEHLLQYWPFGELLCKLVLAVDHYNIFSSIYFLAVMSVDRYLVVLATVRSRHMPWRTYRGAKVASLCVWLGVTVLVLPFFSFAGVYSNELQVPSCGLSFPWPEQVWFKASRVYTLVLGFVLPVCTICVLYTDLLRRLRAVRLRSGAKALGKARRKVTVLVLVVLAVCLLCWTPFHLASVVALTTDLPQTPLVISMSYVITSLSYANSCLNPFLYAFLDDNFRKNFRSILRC
T7 sequence (O75388 whole entry): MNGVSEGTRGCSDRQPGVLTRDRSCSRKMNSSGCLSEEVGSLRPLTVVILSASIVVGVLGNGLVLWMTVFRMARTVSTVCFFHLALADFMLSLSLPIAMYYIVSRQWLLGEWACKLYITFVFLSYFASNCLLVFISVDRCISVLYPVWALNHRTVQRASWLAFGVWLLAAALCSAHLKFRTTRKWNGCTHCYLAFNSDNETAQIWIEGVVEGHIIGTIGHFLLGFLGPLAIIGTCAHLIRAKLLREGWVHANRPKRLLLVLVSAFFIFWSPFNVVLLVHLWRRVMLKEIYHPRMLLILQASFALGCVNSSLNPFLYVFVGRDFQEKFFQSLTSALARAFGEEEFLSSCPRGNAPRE
Chain of 348 GPCRs (Homo sapiens, UniProt P51681) (P51681 whole entry): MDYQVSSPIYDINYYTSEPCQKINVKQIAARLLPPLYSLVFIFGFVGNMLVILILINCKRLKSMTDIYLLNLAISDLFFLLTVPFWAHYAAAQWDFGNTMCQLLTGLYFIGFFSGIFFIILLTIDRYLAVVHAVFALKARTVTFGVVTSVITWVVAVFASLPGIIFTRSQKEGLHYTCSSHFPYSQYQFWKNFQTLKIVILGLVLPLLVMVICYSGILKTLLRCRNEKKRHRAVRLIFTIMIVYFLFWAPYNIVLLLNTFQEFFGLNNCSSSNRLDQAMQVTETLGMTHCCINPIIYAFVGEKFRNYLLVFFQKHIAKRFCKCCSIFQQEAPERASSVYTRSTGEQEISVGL
T3 sequence (Q14416 19-872): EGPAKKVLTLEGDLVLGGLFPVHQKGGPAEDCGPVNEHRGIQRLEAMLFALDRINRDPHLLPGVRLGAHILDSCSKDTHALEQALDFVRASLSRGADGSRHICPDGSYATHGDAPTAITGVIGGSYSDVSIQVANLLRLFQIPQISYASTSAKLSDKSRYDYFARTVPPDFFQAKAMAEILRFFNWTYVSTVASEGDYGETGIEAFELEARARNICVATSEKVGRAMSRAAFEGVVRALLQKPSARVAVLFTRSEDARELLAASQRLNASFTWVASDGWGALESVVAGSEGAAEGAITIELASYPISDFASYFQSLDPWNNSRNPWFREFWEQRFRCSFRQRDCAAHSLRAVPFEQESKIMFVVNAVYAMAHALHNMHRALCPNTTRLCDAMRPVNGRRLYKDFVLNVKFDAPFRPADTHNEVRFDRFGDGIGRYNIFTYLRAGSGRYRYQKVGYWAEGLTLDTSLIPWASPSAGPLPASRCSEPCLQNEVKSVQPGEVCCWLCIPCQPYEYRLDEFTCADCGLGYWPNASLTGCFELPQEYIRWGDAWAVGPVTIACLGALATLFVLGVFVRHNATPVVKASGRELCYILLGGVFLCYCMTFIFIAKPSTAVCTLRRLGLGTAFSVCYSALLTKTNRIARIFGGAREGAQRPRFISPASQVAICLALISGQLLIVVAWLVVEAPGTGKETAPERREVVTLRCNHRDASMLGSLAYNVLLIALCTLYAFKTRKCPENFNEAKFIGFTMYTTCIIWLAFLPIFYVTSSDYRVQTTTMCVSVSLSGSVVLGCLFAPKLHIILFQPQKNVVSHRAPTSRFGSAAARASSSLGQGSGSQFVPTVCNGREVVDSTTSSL
T6 sequence (Q96CH1 whole entry): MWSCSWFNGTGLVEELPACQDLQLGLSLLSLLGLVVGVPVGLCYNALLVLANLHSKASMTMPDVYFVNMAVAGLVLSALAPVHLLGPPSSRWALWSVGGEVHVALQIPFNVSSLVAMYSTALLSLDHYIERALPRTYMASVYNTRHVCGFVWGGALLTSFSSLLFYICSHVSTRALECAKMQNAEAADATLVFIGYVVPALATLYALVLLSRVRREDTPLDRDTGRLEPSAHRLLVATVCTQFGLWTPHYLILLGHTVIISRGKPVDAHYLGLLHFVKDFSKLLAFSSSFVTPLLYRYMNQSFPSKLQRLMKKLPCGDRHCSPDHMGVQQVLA

| SMILES | activation at 10 µM (348 GPCRs [1]; [10]) [%] | activation at 100 µM (348 GPCRs [2]; [11]) [%] | activation at 10 µM (348 GPCRs [3]; [12]) [%] | activation at 100 µM (348 GPCRs [4]; [13]) [%] | activation at 100 µM (348 GPCRs [5]; [14]) [%] | activation at 100 µM (348 GPCRs [6]; [15]) [%] | activation at 10 µM (348 GPCRs [7]; [16]) [%] | activation at 100 µM (348 GPCRs [8]; [17]) [%] | activation at 10 µM (348 GPCRs [9]; [18]) [%] | activation at 10 µM (348 GPCRs [1]; [19]) [%] | activation at 100 µM (348 GPCRs [2]; [20]) [%] | activation at 10 µM (348 GPCRs [3]; [21]) [%] | activation at 100 µM (348 GPCRs [4]; [22]) [%] | activation at 100 µM (348 GPCRs [5]; [23]) [%] | activation at 100 µM (348 GPCRs [6]; [24]) [%] | activation at 10 µM (348 GPCRs [7]; [25]) [%] | activation at 100 µM (348 GPCRs [8]; [26]) [%] | activation at 10 µM (348 GPCRs [9]; [27]) [%] |
| --- | --- | --- | --- | --- | --- | --- | --- | --- | --- | --- | --- | --- | --- | --- | --- | --- | --- | --- |
| CC(C)OC(=O)[C@H](C)N[P@](=O)(OC[C@H]1O[C@@H](n2ccc(=O)[nH]c2=O)[C@](C)(F)[C@@H]1O)Oc1ccccc1 [sofosbuvir] | -2.75 | -4.22 | -2.27 | -0.974 | -1.56 | -6.46 | -3.92 | -3.95 | -0.363 |  |  |  |  |  |  |  |  |  |
| CC(C)C(=O)OC[C@H]1O[C@@H](n2ccc(NO)nc2=O)[C@H](O)[C@@H]1O [molnupiravir] |  |  |  |  |  |  |  |  |  | -2.92 | -5.02 | 0.98 | -0.93 | 0.223 | -4.56 | -4.1 | -3.75 | -2.34 |
| NC(=O)c1nc(F)cnc1O [favipiravir, 6-fluoro-3-hydroxy-2-pyrazinecarboxamide] |  |  |  |  |  |  |  |  |  | -4.53 | -1.82 | -0.721 | -0.27 | 1.68 | 0.0656 | 0.0718 | -2.31 | 1.19 |
| N#C[C@@]1(c2ccc3c(N)ncnn23)O[C@H](CO)[C@@H](O)[C@H]1O [GS441524] |  |  |  |  |  |  |  |  |  | -1.66 | 0.212 | 0.673 | -0.408 | 1.78 | 0.00864 | 1.37 | -2.87 | -0.436 |
| CCC(CC)COC(=O)[C@H](C)N[P@](=O)(OC[C@H]1O[C@@](C#N)(c2ccc3c(N)ncnn23)[C@H](O)[C@@H]1O)Oc1ccccc1 [remdesivir] | -4.48 | 0.934 | 1.1 | 0.931 | 5.17 | 1.36 | 1.78 | 12.4 | 2.38 |  |  |  |  |  |  |  |  |  |
